From US10689383B2, “Optionally fused heterocyclyl-substituted derivatives of pyrimidine useful for the treatment of inflammatory, metabolic, oncologic and autoimmune diseases” (NUEVOLUTION A/S, priority 2014, dated 2020)

Experiments:
[1] = molecular target: T1, human RORγt (Ligand Binding Domain) (Homo sapiens, UniProt P51449); test: Fluorescence Polarization (FP) Assay; settings: Fluorescence Polarization (FP) Assay; values given as upper bounds of activity ranges; read-out: FP activity range
T1 construct: purchased Crelux (Planegg, Germany) batch no PC5032-1
T1 sequence (P51449 269-508 limits assumed): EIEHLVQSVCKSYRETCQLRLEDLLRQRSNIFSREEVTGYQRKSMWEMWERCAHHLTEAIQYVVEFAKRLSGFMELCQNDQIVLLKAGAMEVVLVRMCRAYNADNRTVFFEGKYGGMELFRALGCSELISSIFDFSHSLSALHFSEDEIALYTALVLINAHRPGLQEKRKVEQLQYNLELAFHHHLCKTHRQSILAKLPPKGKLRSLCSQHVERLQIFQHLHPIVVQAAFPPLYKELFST
Procedure, shortened: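 In vitro FP binding assay monitoring ligand binding within the ligand binding pocket. Probe is a TAMRA-labelled RORγt ligand (MW 910 g/mole); DMSO served as negative control.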

[2] = molecular target: T2, yeast Gal4-DNA binding domain fused to the ligand binding domain of human RORγ (Homo sapiens, UniProt P51449); test: RORγ Reporter Assay (Gal4); assay type: cell-based; settings: values given as lower bounds of ranges; for Gal4 activity range @ 0.1 μM (% inhibition): RORγ Reporter Assay (Gal4) at 0.1 μM; for Gal4 activity range @ 1 μM (% inhibition): RORγ Reporter Assay (Gal4) at 1 μM
T2 construct: host or cells: HEK293t
T2 sequence (P51449 269-508 limits assumed): T1 sequence (P51449 269-508 limits assumed)
Procedure, shortened: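 HEK293t reporter cells expressing the hybrid, with Gal4-UAS-driven firefly luciferase, treated in triplicate with compound at 1,000 nM and 100 nM (0.1% DMSO) in medium with 10% charcoal-stripped FBS for 24 h at 37 °C. Luminescence read; percent reduction of RLU calculated relative to vehicle.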

SMILES | IC50 [1] [nM] | Gal4 activity range @ 0.1 μM (% inhibition) [2] [% inhibition] | Gal4 activity range @ 1 μM (% inhibition) [2] [% inhibition]
Fc1c(NCc2ccc(C(F)(F)F)nc2)ncnc1N1CCCC1c1ccc(C(F)(F)F)cc1 (stereo not drawn) [Example 126, 5-fluoro-6-[2-[4-(trifluoromethyl)phenyl]pyrrolidin-1-yl]-N-[[6-(trifluoromethyl)-3-pyridyl]methyl]pyrimidin-4-amine] | < 2000 | >20 | >50
OCCc1ccc(CNc2ncnc(N3CCCC3c3ccc(C(F)(F)F)cc3)c2F)cc1 (stereo not drawn) [Example 128, 2-[4-[[[5-fluoro-6-[2-[4-(trifluoromethyl)phenyl]pyrrolidin-1-yl]pyrimidin-4-yl]amino]methyl]phenyl]ethanol] | < 500 | >50 | –
OC1(CNc2ncnc(N3CCCC3c3ccc(C(F)(F)F)cc3)c2F)CCOCC1 (stereo not drawn) [Example 129, 4-[[[5-fluoro-6-[2-[4-(trifluoromethyl)phenyl]pyrrolidin-1-yl]pyrimidin-4-yl]amino]methyl]tetrahydropyran-4-ol] | < 500 | >50 | –
COc1ccnc(CNc2ncnc(N3CCCC3c3ccc(C(F)(F)F)cc3)c2F)c1 (stereo not drawn) [Example 131, 5-fluoro-N-[(4-methoxy-2-pyridyl)methyl]-6-[2-[4-(trifluoromethyl)phenyl]pyrrolidin-1-yl]pyrimidin-4-amine] | < 2000 | >20 | –
Fc1c(NCc2ccncc2)ncnc1N1CCCC1c1ccc(C(F)(F)F)cc1 (stereo not drawn) [Example 140, 5-fluoro-N-(4-pyridylmethyl)-6-[2-[4-(trifluoromethyl)phenyl]pyrrolidin-1-yl]pyrimidin-4-amine] | < 500 | >20 | –
O=C(O)CC1CCC(CNc2ncnc(N3CCCC3c3ccc(C(F)(F)F)cc3)c2F)CC1 (stereo not drawn) [Example 148, 2-[4-[[[5-fluoro-6-[2-[4-(trifluoromethyl)phenyl]pyrrolidin-1-yl]pyrimidin-4-yl]amino]methyl]cyclohexyl]acetic acid] | < 1000 | >50 | –
CC1(CNc2ncnc(N3CCCC3c3ccc(C(F)(F)F)cc3)c2F)CCC1 (stereo not drawn) [Example 152, 5-fluoro-N-[(1-methylcyclobutyl)methyl]-6-[2-[4-(trifluoromethyl)phenyl]pyrrolidin-1-yl]pyrimidin-4-amine] | < 500 | >0 | –
CC1(CNc2ncnc(N3CCC[C@@H]3c3ccc(C(F)(F)F)cc3)c2F)CCOCC1 [Example 161, 5-fluoro-N-[(4-methyltetrahydropyran-4-yl)methyl]-6-[(2R)-2-[4-(trifluoromethyl)phenyl]pyrrolidin-1-yl]pyrimidin-4-amine] | < 500 | >20 | –
Fc1c(NCC2CCSCC2)ncnc1N1CCC[C@@H]1c1ccc(C(F)(F)F)cc1 [Example 164, 5-fluoro-N-(tetrahydrothiopyran-4-ylmethyl)-6-[(2R)-2-[4-(trifluoromethyl)phenyl]pyrrolidin-1-yl]pyrimidin-4-amine] | < 500 | >20 | –
OC1(CNc2ncnc(N3CCC[C@@H]3c3ccc(C(F)(F)F)cc3)c2F)CCSC1 (stereo partly drawn) [Example 165, 3-[[[5-fluoro-6-[(2R)-2-[4-(trifluoromethyl)phenyl]pyrrolidin-1-yl]pyrimidin-4-yl]amino]methyl]tetrahydrothiophen-3-ol] | < 500 | >50 | –
OC1(CNc2ncnc(N3CCC[C@@H]3c3ccc(C(F)(F)F)cc3)c2F)CCCCCC1 [Example 167, 1-[[[5-fluoro-6-[(2R)-2-[4-(trifluoromethyl)phenyl]pyrrolidin-1-yl]pyrimidin-4-yl]amino]methyl]cycloheptanol] | < 500 | >0 | –
COC1CCCCC1CNc1ncnc(N2CCC[C@@H]2c2ccc(C(F)(F)F)cc2)c1F (stereo partly drawn) [Example 168, 5-fluoro-N-[(2-methoxycyclohexyl)methyl]-6-[(2R)-2-[4-(trifluoromethyl)phenyl]pyrrolidin-1-yl]pyrimidin-4-amine] | < 500 | >50 | –
OC1(CNc2ncnc(N3CCC[C@@H]3c3ccc(C(F)(F)F)cc3)c2F)CCSCC1 [Example 169, 4-[[[5-fluoro-6-[(2R)-2-[4-(trifluoromethyl)phenyl]pyrrolidin-1-yl]pyrimidin-4-yl]amino]methyl]tetrahydrothiopyran-4-o1] | < 500 | >0 | –

Second part, the compound after the results:

IC50 [1] [nM] | Gal4 activity range @ 0.1 μM (% inhibition) [2] [% inhibition] | Gal4 activity range @ 1 μM (% inhibition) [2] [% inhibition] | SMILES
< 500 | >50 | – | NS(=O)(=O)c1ccc(CNc2ncnc(N3CCC[C@@H]3c3ccc(C(F)(F)F)cc3)c2F)cc1 [Example 182, 4-[[[5-fluoro-6-[(2R)-2-[4-(trifluoromethyl)phenyl]pyrrolidin-1-yl]pyrimidin-4-yl]amino]methyl]benzenesulfonamide]
< 500 | >50 | – | Fc1c(NCc2ccc(Cl)nc2)ncnc1N1CCC[C@@H]1c1ccc(C(F)(F)F)cc1 [Example 183, N-[(6-chloro-3-pyridyl)methyl]-5-fluoro-6-[(2R)-2-[4-(trifluoromethyl)phenyl]pyrrolidin-1-yl]pyrimidin-4-amine]
< 1000 | >50 | – | Fc1c(NCc2ccsc2)ncnc1N1CCC[C@@H]1c1ccc(C(F)(F)F)cc1 [Example 185, 5-fluoro-N-(3-thienylmethyl)-6-[(2R)-2-[4-(trifluoromethyl)phenyl]pyrrolidin-1-yl]pyrimidin-4-amine]
< 500 | >0 | – | Fc1c(NCC2CCCOC2)ncnc1N1CCC[C@@H]1c1ccc(C(F)(F)F)cc1 (stereo partly drawn) [Example 186, 5-fluoro-N-(tetrahydropyran-3-ylmethyl)-6-[(2R)-2-[4-(trifluoromethyl)phenyl]pyrrolidin-1-yl]pyrimidin-4-amine]
< 500 | >0 | – | COCC1(CNc2ncnc(N3CCC[C@@H]3c3ccc(C(F)(F)F)cc3)c2F)CCC1 [Example 188, 5-fluoro-N-[[1-(methoxymethyl)cyclobutyl]methyl]-6-[(2R)-2-[4-(trifluoromethyl)phenyl]pyrrolidin-1-yl]pyrimidin-4-amine]
< 500 | >20 | – | CNC(=O)Cc1ccc(CNc2ncnc(N3CCC[C@@H]3c3ccc(C(F)(F)F)cc3)c2F)cc1 [Example 189, 2-[4-[[[5-fluoro-6-[(2R)-2-[4-(trifluoromethyl)phenyl]pyrrolidin-1-yl]pyrimidin-4-yl]amino]methyl]phenyl]-N-methyl-acetamide]
< 500 | >80 | >80 | Fc1c(NC[C@H]2CC[C@H](Cc3nnn[nH]3)CC2)ncnc1N1CCC[C@@H]1c1ccc(C(F)(F)F)cc1 [Example 190, 5-fluoro-N-[[4-(1H-tetrazol-5-ylmethyl)cyclohexyl]methyl]-6-[(2R)-2-[4-(trifluoromethyl)phenyl]pyrrolidin-1-yl]pyrimidin-4-amine]
< 500 | >50 | >80 | CC(=O)N1CCC(CNc2ncnc(N3CCC[C@@H]3c3ccc(C(F)(F)F)cc3)c2F)CC1 [Example 191, 1-[4-[[[5-fluoro-6-[(2R)-2-[4-(trifluoromethyl)phenyl]pyrrolidin-1-yl]pyrimidin-4-yl]amino]methyl]-1-piperidyl]ethanone]
< 500 | >50 | – | O=C(O)Cc1ccc(CNc2ncnc(N3CCCC3c3ccc(OC(F)(F)F)cc3)c2F)cc1 (stereo not drawn) [Example 192, 2-[4-[[[5-fluoro-6-[2-[4-(trifluoromethoxy)phenyl]pyrrolidin-1-yl]pyrimidin-4-yl]amino]methyl]phenyl]acetic acid]
< 500 | >80 | – | O=C(O)Cc1ccc(Cn2ccc3c(N4CCC[C@@H]4c4ccc(C(F)(F)F)cc4)ncnc32)cc1 [Example 195, 2-[4-[[4-[(2R)-2-[4-(trifluoromethyl)phenyl]pyrrolidin-1-yl]pyrrolo[2,3-d]pyrimidin-7-yl]methyl]phenyl]acetic acid]
< 500 | >80 | – | NC(=O)Cc1ccc(Cn2ccc3c(N4CCC[C@@H]4c4ccc(C(F)(F)F)cc4)ncnc32)cc1 [Example 196, 2-[4-[[4-[(2R)-2-[4-(trifluoromethyl)phenyl]pyrrolidin-1-yl]pyrrolo[2,3-d]pyrimidin-7-yl]methyl]phenyl]acetamide]
< 500 | >80 | >80 | CS(=O)(=O)N1CCC(CNc2ncnc(N3CCC[C@@H]3c3ccc(C(F)(F)F)cc3)c2F)CC1 [Example 197, 5-fluoro-N-[(1-methylsulfonyl-4-piperidyl)methyl]-6-[(2R)-2-[4-(trifluoromethyl)phenyl]pyrrolidin-1-yl]pyrimidin-4-amine]
